Test systems include SNB-75 CNS; SK-MEL-28 melanoma; BT-549 breast; COLO 205 colon; SN12C renal; SF-295 CNS; UACC-257 melanoma; MCF7 breast; HCT-116 colon; DU-145 prostate.
Holding throughout (test): growth of human tumour cells (NCI), 48 h

The text below walks through data of PubChem BioAssay (NCI).

“And” between values parts separate entries of the source, which are not always exact repeats. Identical values can stand only once.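 These data come from cells grown in 96-well plates and exposed to compound for 48 hours at five concentrations. The concentration for 50% growth inhibition is given as GI50. TGI is the concentration that stops growth completely.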 A value given as a limit tells only on which side of the number the result lay.

As for `CCCCNNC(=O)c1ccc(Br)cc1`, the GI50 in the assay with SNB-75 CNS was 1.83 µM; with SK-MEL-28 melanoma, 1.55 µM; in the assay on BT-549 breast, 17 µM; with COLO 205 colon it was 2.21 µM; with SN12C renal, 15.4 µM; with SF-295 CNS, 2.54 µM. Also, the GI50 in the assay with UACC-257 melanoma is 0.639 µM; with MCF7 breast, 2.06 µM; with HCT-116 colon, 1.47 µM; in the assay on DU-145 prostate, 2.6 µM. For the same molecule, the TGI in the assay with SNB-75 CNS is greater than 50 µM; with SK-MEL-28 melanoma, greater than 35.3 µM; in the assay on BT-549 breast it was greater than 50 µM; in the assay with COLO 205 colon, 9.92 µM; with SN12C renal it was greater than 50 µM; with SF-295 CNS, 14.7 µM. Also, the TGI in the assay on UACC-257 melanoma was 7.34 µM; with MCF7 breast it was greater than 50 µM; in the assay on HCT-116 colon it was 13.4 µM; with DU-145 prostate it was greater than 50 µM.
With `CCC(=O)N1C/C(=C/c2ccc(Cl)cc2)C(=O)/C(=C/c2ccc(Cl)cc2)C1`, the GI50 in the assay on SNB-75 CNS is 1.37 µM; in the assay with SK-MEL-28 melanoma, 1.71 µM; in the assay on BT-549 breast, 0.462 µM; in the assay with COLO 205 colon, 0.757 µM; in the assay with SN12C renal, 0.711 µM; with SF-295 CNS, 0.514 µM. Moreover, the GI50 is 1.64 µM in the assay on UACC-257 melanoma, 0.324 µM with MCF7 breast, 0.179 µM in the assay on HCT-116 colon and 1.13 µM in the assay on DU-145 prostate. Further, the TGI with SNB-75 CNS came out at 3.1 µM; in the assay with SK-MEL-28 melanoma it was 3.33 µM; in the assay with BT-549 breast, 1.52 µM; with COLO 205 colon it was 1.95 µM; in the assay on SN12C renal, 2.05 µM; in the assay on SF-295 CNS, 2.09 µM. The TGI came to 3.24 µM in the assay with UACC-257 melanoma, 1.36 µM with MCF7 breast, 0.435 µM in the assay on HCT-116 colon and 2.65 µM in the assay on DU-145 prostate.
With `N#Cc1nc(-c2ccc(F)cc2)oc1S(=O)(=O)N1CCCCC1`, the GI50 with SNB-75 CNS is 11.8 µM; in the assay on SK-MEL-28 melanoma, 1.75 µM; in the assay on BT-549 breast it was 2.24 µM; with COLO 205 colon it was 2.07 µM; in the assay with SN12C renal it was 1.65 µM; in the assay with SF-295 CNS it was 14.1 µM. The GI50 is 1.98 µM in the assay on UACC-257 melanoma, 1.69 µM in the assay with MCF7 breast, 1.79 µM with HCT-116 colon and 1.81 µM with DU-145 prostate. The TGI was found to be 25 µM with SNB-75 CNS; 3.28 µM in the assay with SK-MEL-28 melanoma; 5.74 µM in the assay with BT-549 breast; 4.2 µM in the assay on COLO 205 colon; 3.11 µM with SN12C renal; 27.4 µM in the assay on SF-295 CNS. For the same molecule, the TGI in the assay on UACC-257 melanoma stood at 4.58 µM; with MCF7 breast, 3.82 µM; with HCT-116 colon it was 3.54 µM; in the assay on DU-145 prostate, 3.24 µM.
Consider `O=C1NC(N/N=C\C(O)C(O)C(O)C(O)CO)=N/C1=C/c1ccccc1` (stereo not drawn), for which the GI50 in the assay on SNB-75 CNS is > 100 µM and 24.9 µM; with SK-MEL-28 melanoma, 37.3 µM and 24 µM and > 100 µM; in the assay with BT-549 breast, 80.6 µM and 16.3 µM and > 100 µM; in the assay on COLO 205 colon it was > 100 µM and 19.3 µM; with SN12C renal, 75.4 µM and 15.5 µM and > 100 µM; in the assay on SF-295 CNS, 84.1 µM and 16.2 µM and > 100 µM. Besides, the GI50 in the assay on UACC-257 melanoma was > 100 µM and 19.9 µM; in the assay with MCF7 breast, 40.3 µM and 13.5 µM and > 61.4 µM; in the assay with HCT-116 colon, 52.2 µM and 16.4 µM and > 100 µM; in the assay on DU-145 prostate, > 100 µM and 17.6 µM. Besides, the TGI with SNB-75 CNS was > 100 µM and 54 µM; with SK-MEL-28 melanoma it was greater than 100 µM; in the assay with BT-549 breast, > 100 µM and 38.7 µM; in the assay on COLO 205 colon, > 100 µM and 41.6 µM; in the assay with SN12C renal, > 100 µM and 36.3 µM; in the assay on SF-295 CNS, > 100 µM and 38.2 µM. Also, the TGI with UACC-257 melanoma is > 100 µM and 45 µM; in the assay on MCF7 breast, > 100 µM and 30.7 µM; in the assay with HCT-116 colon it was > 100 µM and 33.8 µM; in the assay on DU-145 prostate it was > 100 µM and 48.9 µM.
As for `COC(=O)c1cc(-c2ccccc2)[nH]c1N/N=C/c1c(Cl)cccc1Cl`, the GI50 was 0.215 µM in the assay on SNB-75 CNS; 0.535 µM in the assay with SK-MEL-28 melanoma; 0.466 µM in the assay on BT-549 breast; 0.301 µM in the assay on COLO 205 colon; 0.518 µM in the assay on SN12C renal; 0.195 µM in the assay on SF-295 CNS. For the same molecule, the GI50 with UACC-257 melanoma was 3.58 µM; in the assay with MCF7 breast it was 0.266 µM; in the assay with HCT-116 colon, 0.318 µM; in the assay with DU-145 prostate, 0.322 µM. Also, the TGI in the assay with SNB-75 CNS is 2.43 µM; with SK-MEL-28 melanoma, 17.4 µM; in the assay on BT-549 breast it was 6.69 µM; in the assay on COLO 205 colon it was greater than 40.1 µM; with SN12C renal it was greater than 36.6 µM; in the assay on SF-295 CNS, 0.92 µM. The TGI was found to be 41.3 µM in the assay with UACC-257 melanoma, 4.85 µM with MCF7 breast, 1.71 µM in the assay with HCT-116 colon and 1.14 µM in the assay with DU-145 prostate.
Take `COc1ccc([C@H](CC(=O)O)N2CCN(CCCc3ccc4c(n3)NCCC4)C2=O)cn1`: the GI50 was 0.0112 µM in the assay with SNB-75 CNS; greater than 28.7 µM in the assay on SK-MEL-28 melanoma; 0.153 µM in the assay on BT-549 breast; greater than 100 µM in the assay on COLO 205 colon; 0.515 µM in the assay on SN12C renal; 47.6 µM in the assay with SF-295 CNS. Moreover, the GI50 in the assay with MCF7 breast was 0.247 µM; in the assay on HCT-116 colon, 0.202 µM; in the assay with DU-145 prostate, 0.951 µM. In addition, the TGI in the assay with SNB-75 CNS was 0.0278 µM; with SK-MEL-28 melanoma, greater than 100 µM; in the assay with BT-549 breast it was 0.296 µM; with COLO 205 colon, greater than 100 µM; in the assay with SF-295 CNS, greater than 100 µM; in the assay with UACC-257 melanoma, greater than 100 µM. Also, the TGI in the assay on MCF7 breast was 0.902 µM; in the assay with HCT-116 colon, greater than 34.7 µM; in the assay with DU-145 prostate, 12.5 µM.
Consider `CC1=CC2C(C(O)CC3(C)C2CC(C)C32OCOC23COCO3)C2(C)C/C(=C/O)C(=O)C=C12` (stereo not drawn), for which the GI50 with SNB-75 CNS is 1.63 µM; with SK-MEL-28 melanoma it was 1.87 µM; in the assay on BT-549 breast, 1.62 µM; in the assay on COLO 205 colon it was 1.97 µM; with SN12C renal, 2.5 µM; in the assay with SF-295 CNS it was 2.22 µM. Moreover, the GI50 in the assay with UACC-257 melanoma was 1.82 µM; in the assay with MCF7 breast, 2.69 µM; in the assay on HCT-116 colon, 1.49 µM; in the assay with DU-145 prostate, 2.57 µM. The TGI in the assay on SNB-75 CNS was 3.03 µM; in the assay with SK-MEL-28 melanoma, 3.51 µM; with BT-549 breast, 3.17 µM; in the assay on COLO 205 colon, 3.47 µM; in the assay on SN12C renal, 6.39 µM; in the assay with SF-295 CNS, 5.34 µM. Also, the TGI in the assay with UACC-257 melanoma amounted to 3.86 µM; with MCF7 breast it was 10.1 µM; in the assay with HCT-116 colon, 2.97 µM; in the assay on DU-145 prostate it was 5.81 µM.
For `COc1cc(/C=C/c2ccc(C)cc2)cc(OC)c1OC`, the TGI with SNB-75 CNS amounted to 8.05 µM; in the assay with SK-MEL-28 melanoma, 17.7 µM; in the assay with BT-549 breast, 19 µM; with COLO 205 colon, 13.2 µM; in the assay on SN12C renal, 30.1 µM; in the assay with SF-295 CNS it was 6.53 µM. For the same molecule, the TGI in the assay on UACC-257 melanoma came to 31.5 µM; with MCF7 breast it was 45.3 µM; in the assay on HCT-116 colon, 14.2 µM; in the assay on DU-145 prostate, 13.7 µM.
